Reference: patent US8889714B2, “3,4-substituted piperidine derivatives as renin inhibitors” (Actelion Pharmaceuticals Ltd., priority 2008, dated 2014)
Read-outs that look alike come from different tables or passages of the source. One block for each molecule: values may come before it.

What was measured:
[1] = tested on: female double transgenic rats (transgenic for human renin and angiotensin); experiment: Telemetry of mean arterial blood pressure after oral vs transdermal delivery in double transgenic rats; type: in vivo, rat; details: for ABC36h: area between curves of MAP
Experimental: Female double transgenic rats (rats transgenic for human renin and […] (see, e.g., Bohlender et al., J Am Soc Nephrol 11:2056 (2000)) were developed. All animals were maintained under identical conditions and had free access to normal pelleted rat chow and water. Rats were initially treated with enalapril (1 mg/kg/day), starting 3 weeks after birth and during 9 weeks. Telemetry transmitters are implanted within 2 to 4 weeks after cessation of enalapril treatment. After approximately two weeks following cessation of enalapril treatment, the double transgenic rats are hypertensive with mean arterial blood pressures in the range of 160-170 mmHg.
Transmitter implantation—The rats were anesthetized using isoflurane (via inhalation, 2-3%) The pressure transmitter was implanted under aseptic conditions into the peritoneal cavity with the sensing catheter placed in the descending aorta below the renal arteries pointing upstream. The transmitter was sutured to the abdominal musculature, the skin closed, and the rats were individually housed in a cage, placed on a telemetry receiver pad to enable collection of the blood pressure data during recovery from anesthesia and thereafter. The rats were single-caged for the duration of the recording of telemetry data.
Telemetry System—Telemetry units were obtained from Data Sciences International (DSI, St. Paul, Minn.). […] The tip of the catheter was filled with a viscous gel that prevents blood reflux. The implants (length=2.5 cm, diameter=1.2 cm) weighed 9 g and have a typical battery life of 6 months. A receiver platform (RPC-1, DSI) connected the radio signal to digitized input that was sent to a dedicated personal computer. Arterial pressures were calibrated by using an input from an ambient-pressure reference (APR-1, DSI). Systolic, mean and diastolic blood pressure was expressed in millimeter of mercury (mmHg).
Telemetry data analysis—Signals received by the receivers were digitized for 10 seconds every 5 minutes, at 500 Hz. From this signal, mean arterial pressure (MAP), systolic and diastolic blood pressure (SBP and DPB), pulse pressure (PP), heart rate (HR) and activity (ACT) were derived. A one-hour moving average of the data was then performed by the DSI analysis software. Data were then exported to an Excel template for the calculation of group statistics, areas between curves (ABC), maximal effect and duration of MAP reduction.
Drug administration—For oral delivery, double transgenic rats with implanted pressure transmitters were dosed by oral gavage with a single bolus of vehicle (0.5% methocel; 5 ml/kg) or of the test substance (30 mg/5 ml/kg) (n=5 per group). After dosing, the rat was returned to his cage. Blood pressure data were collected up to 5 days after oral dosing.
(§1) For transdermal delivery, double transgenic rats with implanted pressure transmitters were dosed with a single application on the shaved skin of the rat of vehicle (250 μl of 100% DMSO; n=4) or of the test compound (10 mg in 250 μl of 100% DMSO, i.e. 33 mg/kg; n=5). The rat was lightly sedated under 2.5% isoflurane anesthesia, and its back was shaved over a 4 cm^2 area. The animal was returned to his cage to recover from anesthesia. Twenty-four hours later, the rat was lightly sedated under 2.5% isoflurane anesthesia, and the shaved area disinfected with 3 passes of ethanol.
After evaporation of the ethanol, a volume of 250 μl of 100% DMSO only, or of the compound dissolved in a 100% DMSO solution was applied over the shaved area using a micropipette. After complete evaporation of the DMSO solution (within 5 min after application), an occlusive transparent, waterproof film (OpSite) was taped to the back of the animal over the shaved area, and a jacket was fitted on the animal. Isoflurane inhalation was stopped, and the animal individually caged for telemetry data collection. Blood pressure data were collected up to 5 days after application of the compound/DMSO solution.

[2] = Test substance levels / bioavailability (AUC) in systemic circulation of telemetrized dTG rats; type: in vivo; details: double transgenic (dTG), rat, T24h, read-out: AUC24h
[3] = biological target: T1, Plasma renin activity (PRA) (Homo sapiens, UniProt P00797); experiment: Plasma renin activity (PRA) inhibition in dTG rats after TD delivery; type: in vivo, rat; details: TD 10 mg in DMSO (33 mg/kg); PRA at T4h vs T0h
T1 construct: from tissue; host or cells: plasma of female double transgenic rats (human renin and angiotensinogen transgenes)
T1 sequence (P00797 67-406): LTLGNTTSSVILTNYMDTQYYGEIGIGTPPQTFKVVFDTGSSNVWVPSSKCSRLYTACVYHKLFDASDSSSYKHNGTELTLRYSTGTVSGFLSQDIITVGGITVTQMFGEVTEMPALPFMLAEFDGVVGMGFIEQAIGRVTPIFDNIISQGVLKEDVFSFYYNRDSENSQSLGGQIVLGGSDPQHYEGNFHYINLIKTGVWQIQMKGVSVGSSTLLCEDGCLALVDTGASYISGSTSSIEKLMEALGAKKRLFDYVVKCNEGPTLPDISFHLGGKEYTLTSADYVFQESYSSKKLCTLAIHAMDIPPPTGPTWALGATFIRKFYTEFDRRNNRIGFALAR
Experimental: as §1
A blood sample (0.3 ml) was taken by tail bleed or jugular iv in the telemetrized dTGs, at T0h, T4h and T24h after TD delivery to determine test substance levels and bioavailability (estimated as area under the curve, or AUC) of the active substance in systemic circulation. Plasma renin activity (PRA) was also measured at T0h and T4h. The effect of the test substance on PRA is expressed as the percentage of inhibition of PRA at T4h vs T0h.

Human recombinant renin = biological target: T2, Human recombinant renin (Homo sapiens, UniProt P00797); experiment: Inhibition of human recombinant renin (buffer); type: biochemical; details: 100 pM renin, 50 mM MOPS pH 7.4, 37° C., 3 hours
T2 construct: purchased Proteos
T2 sequence (P00797 67-406): T1 sequence (P00797 67-406)
Experimental: Fluorescence is measured at times 0 and 3 hours with a SpectraMax Gemini EM reader set at an excitation wavelength of 328 nm and at an emission wavelength of 388 nm. Background fluorescence at t=0 is subtracted from the measurement at t=3 hours. Inhibitory activity of the compounds is expressed as IC50.

[4] = biological target: T3, recombinant renin in human plasma (Homo sapiens, UniProt P00797); experiment: Inhibition of renin in human plasma; type: biochemical; details: human EDTA plasma, 1 nM recombinant renin added, 37° C., 1 hour
T3 construct: purchased Proteos
T3 sequence (P00797 67-406): T1 sequence (P00797 67-406)
Experimental: Human EDTA-collected plasma is rapidly thawed in warm water and centrifuged at 2900 g for 15 minutes at 4° C. The supernatant is collected and recombinant renin (Proteos) is added at a final concentration of 1 nM. […] The plate is incubated at 37° C. for 1 hour. […] Background fluorescence at t=0 is subtracted from the measurement at t=1 hour. Inhibitory activity of the compounds is expressed as IC50.

[5] = PO, single oral gavage 30 mg/5 ml/kg in 0.5% methocel
[6] = TD, single application 10 mg in 250 μl 100% DMSO (33 mg/kg) on shaved skin
[7] = read-out: Human Renin IC50 (buffer)
[8] = read-out: Human Renin IC50 (plasma)

IC50 (Human recombinant renin; [7]): 4.7 nM
IC50 [4, 8]: 12.3 nM
SMILES: COCCCc1ccc(SC)c(CN(C(=O)[C@H]2CNCC[C@@H]2c2ccn(C)c(=O)c2)C2CC2)c1 (relative stereo) [Example 84, trans-N-Cyclopropyl-4-(1-methyl-2-oxo-1,2-dihydro-4-pyridinyl)-N-{[5-[3-(methyloxy)propyl]-2-(methylthio)phenyl]methyl}-3-piperidinecarboxamide]

IC50 (Human recombinant renin; [7]): 7.5 nM
IC50 [4, 8]: 21 nM
SMILES: Cc1cc(Cc2ccccc2)cc(CN(C(=O)[C@@H]2CNCC[C@H]2c2ccn(C)c(=O)c2)C2CC2)c1 (relative stereo) [Example 104, trans-N-(3-Benzyl-5-methylbenzyl)-N-cyclopropyl-4-(1-methyl-2-oxo-1,2-dihydro-4-pyridinyl)-3-piperidinecarboxamide]

The remaining lines, values behind:

SMILES: COCCCc1cc(CN(C(=O)[C@H]2CNCC[C@@H]2c2ccn(C)c(=O)c2)C2CC2)cc(Br)c1C (relative stereo) [test substance, trans-N-({3-Bromo-4-methyl-5-[3-(methyloxy)propyl]phenyl}methyl)-N-cyclopropyl-4-(1-methyl-2-oxo-1,2-dihydro-4-pyridinyl)-3-piperidinecarboxamide]
duration of MAP reduction [1, 5]: 2 days
max MAP decrease [1, 5]: 57 mmHg
ABC36h [1, 5]: 1143 mmHg * h
duration of MAP reduction [1, 6]: 1 days
max MAP decrease [1, 6]: 30 mmHg
ABC36h [1, 6]: 514 mmHg * h
AUC(0-t) ([2]; topical, TD 10 mg in DMSO (33 mg/kg), blood samples at T0h, T4h): 2.9 µM·h
AUC(0-t) ([2]; PO 30 mg/kg, blood samples at T0, T6h): 1.8 µM·h
PRA inhibition at 4 h [3]: 98%

SMILES: COCCNc1cc(CN(C(=O)[C@@H]2CNCC[C@H]2c2ccn(C)c(=O)c2)C2CC2)c2ccccc2c1 (relative stereo) [Example 36, trans-N-Cyclopropyl-4-(1-methyl-2-oxo-1,2-dihydro-4-pyridinyl)-N-[(3-{[2-(methyloxy)ethyl]amino}-1-naphthalenyl)methyl]-3-piperidinecarboxamide]
IC50 (Human recombinant renin; Human Renin IC50 (buffer)): 5.3 nM
IC50 ([4]; Human Renin IC50 (plasma)): 2.4 nM

SMILES: COCCCc1cc(CN(C(=O)[C@@H]2CNCC[C@H]2c2ccn(C)c(=O)c2)C2CC2)c2ccccc2c1 (relative stereo) [Example 18, trans-N-Cyclopropyl-4-(1-methyl-2-oxo-1,2-dihydro-4-pyridinyl)-N-({3-[3-(methyloxy)propyl]-1-naphthalenyl}methyl)-3-piperidinecarboxamide]
IC50 (Human recombinant renin; [7]): 0.4 nM
IC50 [4, 8]: 1.8 nM
